Values quoted from earlier work in patent US20150342920A1, “DERMATOLOGICAL COMPOSITIONS COMPRISING AT LEAST ONE RETINOID COMPOUND, AN ANTI-IRRITANT COMPOUND AND BENZOYL PEROXIDE” (GALDERMA RESEARCH & DEVELOPMENT, priority 2007, published 2015).

O=C(OOC(=O)c1ccccc1)c1ccccc1 [benzoyl peroxide]
degradation of benzoyl peroxide in solution (in solution, ethanol, propylene glycol and mixtures of PEG 400 and water, depends on type and concentration of solvent): degrades more or less rapidly
degradation of benzoyl peroxide in suspension (in suspension (disperse form) in water and in propylene glycol, after 90 days of storage): not degraded
